# PubChem BioAssay AID485280 (The Scripps Research Institute Molecular Screening Center, 2010)
# Active and inactive are the calls of the source.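 Rule for the calls: active = CC50 of 24 µM or less, the dose killing half of Huh-7.5 liver cells, showing toxicity to them; inactive = no cytotoxicity, CC50 exceeds 24 µM.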
# Tested on: Huh-7.5 viability, XTT absorbance
# Experiment: Huh-7.5 cell viability reduction – absorbance, cytotoxicity control for HCV core dimerization inhibitor project, late-stage follow-up (AID 485280)
row,SMILES,CC50
1,COc1ccc(NC(=O)CN(C)C(=O)c2cc3c(s2)CCC3)cc1,123 µM (inactive)
2,Cc1ccc(Cc2c(C)nc3nc(SCC(=O)NCCCN4CCCCCC4)nn3c2C)cc1,27.4 µM (inactive)
3,CCN(CC(=O)Nc1c(F)cccc1F)C(=O)/C=C/c1ccc2ccccc2n1,148 µM (inactive)
4,COCCN(C(=O)COC(=O)c1cc2c(s1)CCC2)c1c(N)n(Cc2ccccc2)c(=O)[nH]c1=O,141 µM (inactive)
5,CCCCCC#CCC#CCC#CCC#CCCCC(=O)O,179 µM (inactive)
6,O=C(/C=C/c1ccc(Br)o1)OCc1nc2ccsc2c(=O)[nH]1,163 µM (inactive)
7,Cc1ccccc1N1C(=O)/C(=C/c2ccco2)C(=O)NC1=S,143 µM (inactive)
